pIC50: −log10 of the molar value. Values joined by “and” are separate entries in the source; they are usually repeats but may differ in a detail not shown here. Equal values may be shown once. Read-outs that look alike come from different tables or passages of the source.
How the values were obtained:
human Dock5 = target: T1, human Dock5 (Homo sapiens, UniProt Q9H7D0); assay: Pull down assay of Rac activation by human Dock5 DHR2 in transfected 293T cells; assay type: cell-based; settings: for inhibition at 50 µM / inhibition at 100 µM: HEK-293T; for pIC50: 1 hour treatment
T1 construct: plasmid expressing the catalytic DHR2 domain of mouse or human Dock5; expressed in transfected cells; host or cells: 293T cells
Description: (§1) Compounds E73, E88 and E78 were tested for their inhibiting effect of the activation of Rac by mouse Dock5 of and for certain human Dock5 according to a screening test using a pull down assay as represented in Figure 1.
Methodology (Figure 1): cells 293T seeded onto 100 mm diameter plates in a DMEM culture medium containing 10% serum in an incubator in 5.5% CO2 humidified atmosphere at 37°C. When they reach the density of 5x10^6 cells per plate, cells are transfected with 8 µg of plasmid expressing the catalytic DHR2 domain of mouse or human Dock5 in order to activate endogenous GTPase Rac. After 24 hours, the cells are lifted using trypsin and are seeded 10^6 per well in 6-well plates of 35 mms in diameter. The following day, the cells are put in contact during one hour with the compound, in a mother solution at 20 mM into 100% DMSO, to a test concentration of 100 µM into 0.5% DMSO in the DMEM medium containing 0.1% of BSA. The basal activation of Rac by Dock5 is measured from the cells treated with 0.5% DMSO. After treatment, the cells are observed under the optical microscope to make sure of the absence of any toxic effect of the compound. If cell suffering is detected, the test is invalidated and the compound is retested at a lower dosage. The cells are then lysed in 100 µl of the pull down buffer (10% glycerol, 50 mm Tris pH 7.4, 100 mM NaCl, 1% IGEPAL® CA-630 (SIGMA I3021), 2 mM MgCl2 supplemented with proteases inhibitors) and the lysate is incubated during one hour with 20 µg of sepharose beads coupled with the fusion protein GST-PAK-CRIB, which binds specifically the activated form of GTPase Rac, which is bound to GTP. After centrifugation and washings, the proteins associated with the beads, including active Rac GTPase, are denatured and loaded on an SDS PAGE gel. […] For each compound tested, the level of active Rac GTPase is quantified using the Image J software and is normalized to the concentration of total protein in the whole cell lysate. The efficiency of the molecule is defined by the level of active Rac after treatment compared to the level of active Rac in the cells treated with DMSO (control). An activity is considered as inhibitory if the level of Rac activation decreases by at least 10%, 20%, in particular at least 30%, 40%, and preferably at least 50% compared to the control treated with DMSO (Table 1).
The same approach was used to test the potency of molecules of the 48ED family, on the activity of human Dock5 DHR2 (Table 2). Table 2: Inhibitory activity of the compounds of the 48ED family on human Dock5 activity.

[1] = target: T2, DHR2 exchange domain of Dock5 (Homo sapiens, UniProt Q9H7D0); assay: In vitro Rac1 nucleotide exchange (mantGDP fluorescence) with purified recombinant proteins, Dock5; assay type: biochemical; settings: inhibitor 20 and 60 µM
T2 construct: catalyzed by the DHR2 exchange domain of Dock5 or by the Dbl exchange domain of TRIO; made in house; host or cells: E. coli
Description: (§2) The effect of the molecules has been tested on the nucleotide exchange reaction by the GTPase Rac1 catalyzed by the DHR2 exchange domain of Dock5 or by the Dbl exchange domain of TRIO, using purified recombinant proteins produced in E. coli bacteria (Vives, Cres et al., 2015).
(§3) The activity of the inhibitors is measured by fluorescence spectroscopy on 96-well plates with a FlexStation 3 fluorimeter, in a reaction volume of 150 µL, without stirring, at a temperature of 26 ° C. Each plate contains 4 inhibitors at two concentrations (20 and 60 µM), 2 GEFs (DOCK5 and TRIO) and includes controls without inhibitor (1% final DMSO). The inhibitors are diluted to DMSO at an intermediate concentration of 2 or 6 mM, ie 1% final DMSO. Rac1-mantGDP (2 µM), DOCK5 or TRIO (0,2 µM) and the inhibitors are mixed immediately before the beginning of measurements. The exchange reaction is triggered by series of 8 wells in parallel by addition of 100 µM of GTP with mixing by pipetting (Flex mode). The kinetics is followed during 800 seconds. All the measurements are made in duplicate on the same plate. The total playing time of a plate is about 80 minutes. The kinetics of exchange are analyzed with a mono-exponential model F = F0 + ΔFe - kt with the KaleidaGraph ™ software, where F0 is the initial fluorescence and k (or kobs) is the exchange rate constant.

[2] = target: T3, Dbl exchange domain of TRIO (Homo sapiens, UniProt O75962); assay: In vitro Rac1 nucleotide exchange (mantGDP fluorescence) with purified recombinant proteins, TRIO; assay type: biochemical; settings: inhibitor 20 and 60 µM
T3 construct: catalyzed by the DHR2 exchange domain of Dock5 or by the Dbl exchange domain of TRIO; made in house; host or cells: E. coli
Description: as §2, §3

ovariectomized mice = assay: Bone dynamics parameters in ovariectomized mice; assay type: in vivo, mouse; settings: OVX mice
Description: The ovariectomized mouse was used as an in vivo model of pathological bone loss. […] Each group contained ten female C57BL/6J mice that were fourteen weeks of age at the beginning of in-life phase of the study. At the beginning of the in-life phase (at study day 0), mice were weighed and their surgical ovariectomy (OVX) and control (SHAM) operations were performed under analgesia and anaesthesia. […] was injected intra peritoneally (i.p.) to OVX animals, 20 mg/kg once (q.d., dose 1) or twice (b.i.d., dose 2) daily for 25 days, in a vehicle solution containing 0.485% carboxymethylcellulose (CMC) and 3% Tween 80. Control mice received the same volume of vehicle. The effects of treatment with reference compound zoledronate (100 μg/kg, subcutaneously, twice a week.) were studied by comparing OVX mice treated with zoledronate and vehicle with OVX control mice treated with vehicle. At study days 21 and 26, bone was labelled with subcutaneous injections of oxytetracycline and calcein green, respectively, in order to enable the analysis of optional dynamic parameters in bone histomorphometry. Blood for serum samples were harvested from saphenous vein at days -1, 13 and 27 of the study for bone dynamics marker dosage.

[3] = cited from earlier work
mouse Dock5 = target: T4, mouse Dock5 (Mus musculus, UniProt B2RY04); assay: Pull down assay of Rac activation by mouse Dock5 DHR2 in transfected 293T cells; assay type: cell-based
T4 construct: plasmid expressing the catalytic DHR2 domain of mouse or human Dock5; expressed in transfected cells; host or cells: 293T cells
Description: as §1
Methodology (Figure 1): cells 293T seeded onto 100 mm diameter plates in a DMEM culture medium containing 10% serum in an incubator in 5.5% CO2 humidified atmosphere at 37°C. When they reach the density of 5x10^6 cells per plate, cells are transfected with 8 µg of plasmid expressing the catalytic DHR2 domain of mouse or human Dock5 in order to activate endogenous GTPase Rac. After 24 hours, the cells are lifted using trypsin and are seeded 10^6 per well in 6-well plates of 35 mms in diameter. The following day, the cells are put in contact during one hour with the compound, in a mother solution at 20 mM into 100% DMSO, to a test concentration of 100 µM into 0.5% DMSO in the DMEM medium containing 0.1% of BSA. The basal activation of Rac by Dock5 is measured from the cells treated with 0.5% DMSO. […] If cell suffering is detected, the test is invalidated and the compound is retested at a lower dosage. […] For each compound tested, the level of active Rac GTPase is quantified using the Image J software and is normalized to the concentration of total protein in the whole cell lysate. […]

[4] = Table 3, human Dock5, test concentration 100 µM, 1 hour, replicate values, 100 µM
[5] = 20 mg/kg, i.p., b.i.d., first two weeks of in-life phase, vs OVX vehicle
[6] = 20 mg/kg, i.p., q.d. and b.i.d., study day 28, vs OVX vehicle
[7] = 20 mg/kg, i.p., q.d. and b.i.d, study day 28
[8] = Table 3, human Dock5, test concentration 100 µM, 1 hour, replicate values, read-out: Inhibition
[9] = zoledronate 100 µg/kg, subcutaneously, twice a week, study day 28, vs OVX vehicle

T1 sequence (Q9H7D0 1231-1642 limits assumed): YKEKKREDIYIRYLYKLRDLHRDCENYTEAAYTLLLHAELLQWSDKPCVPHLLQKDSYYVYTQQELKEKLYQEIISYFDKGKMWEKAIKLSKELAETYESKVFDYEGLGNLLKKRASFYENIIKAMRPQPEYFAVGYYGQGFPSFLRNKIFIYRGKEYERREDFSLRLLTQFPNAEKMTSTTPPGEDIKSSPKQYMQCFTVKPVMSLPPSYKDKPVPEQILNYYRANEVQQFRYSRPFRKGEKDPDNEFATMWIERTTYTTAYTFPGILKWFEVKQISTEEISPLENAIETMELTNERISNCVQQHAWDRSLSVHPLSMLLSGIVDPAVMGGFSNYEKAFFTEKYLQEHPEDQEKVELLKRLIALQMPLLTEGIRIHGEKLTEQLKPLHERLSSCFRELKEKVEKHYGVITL
T4 sequence (B2RY04 1231-1642 limits assumed): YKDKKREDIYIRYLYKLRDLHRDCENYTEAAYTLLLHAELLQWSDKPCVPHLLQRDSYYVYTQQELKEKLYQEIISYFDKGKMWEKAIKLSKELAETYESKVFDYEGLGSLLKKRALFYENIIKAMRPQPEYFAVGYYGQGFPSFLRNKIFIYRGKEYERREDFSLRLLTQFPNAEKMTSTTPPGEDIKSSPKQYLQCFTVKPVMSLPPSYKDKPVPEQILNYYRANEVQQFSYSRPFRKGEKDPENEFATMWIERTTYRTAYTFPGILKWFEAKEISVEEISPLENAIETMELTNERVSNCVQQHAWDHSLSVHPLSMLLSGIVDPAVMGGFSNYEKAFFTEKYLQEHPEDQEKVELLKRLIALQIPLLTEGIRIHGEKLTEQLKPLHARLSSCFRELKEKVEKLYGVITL
T2 sequence (Q9H7D0 1231-1642 limits assumed): as the sequence (Q9H7D0 1231-1642 limits assumed) above

SMILES: O=S1(=O)N(c2ccccc2)C[C@H](O)[C@]12CCN(Cc1ccc(Cl)cc1)C2 (racemic) [E197, rac-(4S,5R)-7-(4-chlorobenzyl)-4-hydroxy-2-phenyl-1-thia-2,7-diazaspiro[4.4]nonane 1,1-dioxide]
- inhibition at 50 µM (human Dock5; Table 3, human Dock5, at 50µM): 80%
- Inhibition (human Dock5; [4]): 55% and 90%
- pIC50 (human Dock5; human Dock5): 4.44
- effect on the nucleotide exchange reaction of Rac1 catalyzed by Dock5 [1]: inhibit Dock 5
- effect on the nucleotide exchange reaction of Rac1 catalyzed by TRIO [2]: not TRIO
- trabecular separation (Tb.Sp) (ovariectomized mice; 20 mg/kg, i.p., b.i.d., bone histomorphometry, study day 28, vs OVX vehicle): decreased
- relative change in serum PINP levels (ovariectomized mice; 20 mg/kg, i.p., b.i.d., entire in-life phase, vs OVX vehicle): decreased
- relative change in serum CTX-I levels (ovariectomized mice; [5]): decreased
- relative change in serum PINP levels (ovariectomized mice; [5]): decreased
- trabecular bone volume fraction (BV/TV) in femoral and tibial metaphyses (ovariectomized mice; 20 mg/kg, i.p., b.i.d., study day 28, vs OVX vehicle): increased
- trabecular number (Tb.N) in tibial metaphysis (ovariectomized mice; 20 mg/kg, i.p., b.i.d., µCT, study day 28, vs OVX vehicle): increased
- serum levels of bone turnover biomarker osteoclacin (ovariectomized mice; 20 mg/kg, i.p., q.d. and b.i.d., entire in-life phase): did not decreased
- cortical bone specific surface (BS/BV) in tibial diaphysis (ovariectomized mice; [6]): decreased
- cortical thickness (Ct.Th) in tibial diaphysis (ovariectomized mice; [6]): increased
- mineral apposition rate (MAR) in trabecular bone in femoral metaphysis (ovariectomized mice; [7]): did not decreased
- mineralizing surface per bone surface (MS/BS) in trabecular bone in femoral metaphysis (ovariectomized mice; [7]): did not decreased
- body weight (ovariectomized mice; in-life phase (day 0 to day 28)): did not affect body weight

SMILES: O=S1(=O)N(c2ccccc2)C[C@H](O)[C@]12CCN(Cc1ccc(Cl)c(Cl)c1)C2 (racemic) [E202, rac-(4S,5R)-7-(3,4-dichlorobenzyl)-4-hydroxy-2-phenyl-1-thia-2,7-diazaspiro[4.4]nonane 1,1-dioxide]
- inhibition at 50 µM (human Dock5; Table 3, human Dock5, at 50µM): 95%
- Inhibition (human Dock5; Table 3, human Dock5, at 50µM): 90%
- pIC50 (human Dock5; human Dock5): 4.54
- effect on the nucleotide exchange reaction of Rac1 catalyzed by Dock5 [1]: inhibit Dock 5
- effect on the nucleotide exchange reaction of Rac1 catalyzed by TRIO [2]: not TRIO

SMILES: O=S(=O)(Nc1cc(Cl)cc(Cl)c1)c1ccccc1 [C21, N-(3,5-dichlorophenyl)-benzenesulfonamide]
- bone formation ([3]; mice treated daily along 4 weeks): Bone formation is maintained
- histological observation of all tissues ([3]; mice): did not reveal any anomaly
- development of bone metastases ([3]; mouse): reduces the development of bone metastases
- bone resorption ([3]; mouse, postmenopausal osteoporosis, inflammatory and metastasis-induced bone loss models, intravenous or intraperitoneal administration): inhibits effectively the bone resorption

SMILES: O=S1(=O)N(c2ccccc2)C[C@H](O)[C@]12CCN(Cc1cccc(Cl)c1)C2 [E73]
- inhibition at 100 µM (mouse Dock5; HEK-293T, 100 µM, species of Dock5 not given): ~95%
- pIC50 (mouse Dock5; mouse DHR2 of Dock5): 4.77
- inhibition at 100 µM (human Dock5; Table 1a, test concentration 100 µM, 1 hour, replicate values, Negative = Rac activation does not decrease, read-out: Inhibition Dock5 (%) Human): 70%
- Inhibition Dock5 (%) Human (human Dock5; Table 1a, test concentration 100 µM, 1 hour, replicate values, Negative = Rac activation does not decrease, 100 µM): 60% and 55%
- Inhibition (human Dock5; Table 2, human Dock5 DHR2, test concentration 100 µM, 1 hour, replicate values, Negative = Rac activation does not decrease, 100 µM): 55% and 95% (3×) and 50% and 90% (2×)
- pIC50 (human Dock5; human Dock5): 4.44

SMILES: COc1ccc(N2CCC3(CCN(Cc4cccc(Cl)c4)C3)C2=O)cc1C (stereo not drawn) [E228, 7-(3-chlorobenzyl)-2-(4-methoxy-3-methylphenyl)-2,7-diazaspiro[4.4]nonan-1-one]
- inhibition at 50 µM (human Dock5; Table 3, human Dock5, at 50µM): 65%
- pIC50 (human Dock5; human Dock5): 5.10

SMILES: O=S1(=O)N(c2ccccc2)C[C@H](OCCO)[C@]12CCN(Cc1ccccc1)C2 [E229]
- inhibition at 50 µM (human Dock5; Table 3, human Dock5, at 50µM): 65%

SMILES: CNC(=O)CO[C@H]1CN(c2ccccc2)S(=O)(=O)[C@@]12CCN(Cc1ccccc1)C2 [E230]
- Inhibition (human Dock5; [4]): 80% and 45% and 30% and 70%

SMILES: CCOC(=O)CO[C@H]1CN(c2ccccc2)S(=O)(=O)[C@@]12CCN(Cc1ccccc1)C2 [E231]
- inhibition at 50 µM (human Dock5; Table 3, human Dock5, at 50µM): 70%

SMILES: O=C(O)CO[C@H]1CN(c2ccccc2)S(=O)(=O)[C@@]12CCN(Cc1ccccc1)C2 [E232]
- Inhibition (human Dock5; [4]): 40% (2×) and 10%

SMILES: O=S1(=O)N(C2CCCCC2)C[C@H](O)[C@]12CCN(Cc1ccccc1)C2 [E233]
- inhibition at 100 µM (human Dock5; [8]): 70%
- Inhibition (human Dock5; [4]): 60%

SMILES: O=S1(=O)N(C2CCCCC2)C[C@@H](O)[C@]12CCN(Cc1ccccc1)C2 [E234]
- Inhibition (human Dock5; [4]): 85% and 55% and 40% and 60%

SMILES: O=S1(=O)N(c2cccc(Cl)c2)C[C@H](O)[C@]12CCN(Cc1ccccc1)C2 [E235]
- inhibition at 100 µM (human Dock5; [8]): 80%
- Inhibition (human Dock5; [4]): 85%

SMILES: O=S1(=O)N(c2cccc(Cl)c2)C[C@@H](O)[C@]12CCN(Cc1ccccc1)C2 [E236]
- inhibition at 50 µM (human Dock5; Table 3, human Dock5, at 50µM): 20%
- inhibition at 100 µM (human Dock5; [8]): 70%

SMILES: O=P(O)(O)C(O)(Cn1ccnc1)P(=O)(O)O [Zoledronate, reference compound]
- relative change in serum osteoclacin levels (ovariectomized mice; zoledronate 100 µg/kg, subcutaneously, twice a week, in-life phase, vs OVX vehicle): decreased
- mineral apposition rate (MAR) in trabecular bone in femoral metaphysis (ovariectomized mice; [9]): decreased
- mineralizing surface per bone surface (MS/BS) in trabecular bone in femoral metaphysis (ovariectomized mice; [9]): decreased

— patent EP3553061A1, “NEW INHIBITORS OF BONE RESORPTION” (CENTRE NATIONAL DE LA RECHERCHE SCIENTIFIQUE (CNRS), priority 2018, dated 2019)
